The results in this text go back to ChEMBL document CHEMBL5143672, “New diarylpentanoids and chalcones as potential antimicrobial adjuvants” (2022).

SMILES strings stand for the structures.

The term MIC denotes the least concentration at which growth counts as inhibited. For orientation: inhibition means how much of the control response was suppressed.

One experiment deals with Escherichia coli. In words: Antibacterial activity against Escherichia coli ATCC 25922 assessed as inhibition of bacterial growth by broth microdilution method. It is filed as functional.
Conditions: not given
For orientation: Dilution methods test growth across graded concentrations, often in twofold steps.
Regarding `Cc1ccc(/C=C2\COC/C(=C\c3ccc(C)cc3)C2=O)cc1`, the minimum inhibitory concentration (MIC) is over 64 µg/mL.
On to `COc1ccc(/C=C2\COC/C(=C\c3ccc(OC)c(OC)c3)C2=O)cc1OC`, for which the minimal inhibitory concentration (MIC) is over 64 µg/mL.
Same read-out and setting: for `COc1cccc(/C=C2\COC/C(=C\c3cccc(OC)c3OC)C2=O)c1OC` the value was over 64 µg/mL.

Another experiment relates to Pseudomonas aeruginosa. The experiment can be described thus: Antibacterial activity against Pseudomonas aeruginosa ATCC 27853 assessed as inhibition of bacterial growth by broth microdilution method. It is filed as functional.
Conditions: not given
For the compound `Cc1ccc(/C=C2\COC/C(=C\c3ccc(C)cc3)C2=O)cc1`, the MIC was over 64 µg/mL.
On the same count and under the same terms, for `COc1ccc(/C=C2\COC/C(=C\c3ccc(OC)c(OC)c3)C2=O)cc1OC` the value was over 64 µg/mL; for `COc1cccc(/C=C2\COC/C(=C\c3cccc(OC)c3OC)C2=O)c1OC`, over 64 µg/mL.

A further experiment concerns Salmonella typhimurium. The experiment can be described thus: Antibacterial activity against Salmonella enterica serovar typhimurium SL1344 (SE03) assessed as inhibition of bacterial growth by broth microdilution method. It is filed as functional, Salmonella enterica subsp. enterica serovar Typhimurium.
Conditions: not given
For `Cc1ccc(/C=C2\COC/C(=C\c3ccc(C)cc3)C2=O)cc1`, the minimum inhibitory concentration (MIC) is over 64 µg/mL.
The same measure, in the same setting: for `COc1ccc(/C=C2\COC/C(=C\c3ccc(OC)c(OC)c3)C2=O)cc1OC` the value was over 64 µg/mL.
In the case of `COc1cccc(/C=C2\COC/C(=C\c3cccc(OC)c3OC)C2=O)c1OC`, the minimal inhibitory concentration (MIC) was over 64 µg/mL.

The next experiment deals with Staphylococcus aureus. In words: Antibacterial activity against Staphylococcus aureus ATCC 25923 assessed as inhibition of bacterial growth by broth microdilution method. The format is functional.
Conditions: not given
On to `Cc1ccc(/C=C2\COC/C(=C\c3ccc(C)cc3)C2=O)cc1`, for which the MIC was over 64 µg/mL.
Still for that read-out and setting: for `COc1ccc(/C=C2\COC/C(=C\c3ccc(OC)c(OC)c3)C2=O)cc1OC` the value was over 64 µg/mL; for `COc1cccc(/C=C2\COC/C(=C\c3cccc(OC)c3OC)C2=O)c1OC`, over 64 µg/mL.

Another experiment concerns Enterococcus faecalis. In words: Antibacterial activity against Enterococcus faecalis ATCC 29212 assessed as inhibition of bacterial growth by broth microdilution method.
Conditions: not given
The format is functional.
Turning to `Cc1ccc(/C=C2\COC/C(=C\c3ccc(C)cc3)C2=O)cc1`, the MIC is over 64 µg/mL.
As for `COc1ccc(/C=C2\COC/C(=C\c3ccc(OC)c(OC)c3)C2=O)cc1OC`, the minimum inhibitory concentration (MIC) was over 64 µg/mL.
The same measure, in the same setting: for `COc1cccc(/C=C2\COC/C(=C\c3cccc(OC)c3OC)C2=O)c1OC` the value was over 64 µg/mL.

A further experiment has as its system Staphylococcus aureus. In words: Antibacterial activity against methicillin and ofloxacin-resistant Staphylococcus aureus 272123 assessed as inhibition of bacterial growth by broth microdilution method. It is filed as functional.
Conditions: not given
Regarding `Cc1ccc(/C=C2\COC/C(=C\c3ccc(C)cc3)C2=O)cc1`, the minimum inhibitory concentration (MIC) is over 64 µg/mL.
For `COc1ccc(/C=C2\COC/C(=C\c3ccc(OC)c(OC)c3)C2=O)cc1OC`, the MIC is over 64 µg/mL.
Same read-out and setting: for `COc1cccc(/C=C2\COC/C(=C\c3cccc(OC)c3OC)C2=O)c1OC` the value was over 64 µg/mL.

The next experiment has as its system Candida albicans. In words: Antifungal activity against Candidia albicans ATCC 10231 assessed as inhibition of fungal growth by broth microdilution method.
Conditions: not given
The format is functional.
As for `Cc1ccc(/C=C2\COC/C(=C\c3ccc(C)cc3)C2=O)cc1`, the minimum inhibitory concentration (MIC) is over 128 µg/mL.
For `COc1ccc(/C=C2\COC/C(=C\c3ccc(OC)c(OC)c3)C2=O)cc1OC`, the MIC was over 128 µg/mL.
With `COc1cccc(/C=C2\COC/C(=C\c3cccc(OC)c3OC)C2=O)c1OC`, the MIC was over 128 µg/mL.

The test system of the next experiment is Aspergillus fumigatus. In words: Antifungal activity against Aspergillus fumigatus ATCC 204305 assessed as inhibition of fungal growth by broth microdilution method. It is filed as functional.
Conditions: not given
`Cc1ccc(/C=C2\COC/C(=C\c3ccc(C)cc3)C2=O)cc1`: the MIC was over 128 µg/mL.
Take `COc1ccc(/C=C2\COC/C(=C\c3ccc(OC)c(OC)c3)C2=O)cc1OC`: the minimum inhibitory concentration (MIC) is over 128 µg/mL.
Still for that read-out and setting: for `COc1cccc(/C=C2\COC/C(=C\c3cccc(OC)c3OC)C2=O)c1OC` the value was over 128 µg/mL.

Another experiment has as its system Trichophyton rubrum. The experiment can be described thus: Antifungal activity against Trichophyton rubrum FF5 assessed as inhibition of fungal growth by broth microdilution method.
Conditions: not given
The format is functional.
Turning to `Cc1ccc(/C=C2\COC/C(=C\c3ccc(C)cc3)C2=O)cc1`, the MIC is over 128 µg/mL.
Same read-out and setting: for `COc1ccc(/C=C2\COC/C(=C\c3ccc(OC)c(OC)c3)C2=O)cc1OC` the value was over 128 µg/mL; for `COc1cccc(/C=C2\COC/C(=C\c3cccc(OC)c3OC)C2=O)c1OC`, over 128 µg/mL.

The next experiment has as its system Escherichia coli. In words: Antimicrobial adjuvant activity against ESBL-producing Escherichia coli SA/2 assessed as potentiation of cefotaxime-induced antibacterial activity by measuring fold reduction in cefotaxime MIC at 64 ug/ml by broth microdilution method. The following applies: dose 64 µg/ml. It is filed as functional.
Consider `Cc1ccc(/C=C2\COC/C(=C\c3ccc(C)cc3)C2=O)cc1`, for which the “fold change (FC)” value was found to be 2.
Still for that read-out and setting: for `COc1ccc(/C=C2\COC/C(=C\c3ccc(OC)c(OC)c3)C2=O)cc1OC` the value was 2; for `COc1cccc(/C=C2\COC/C(=C\c3cccc(OC)c3OC)C2=O)c1OC`, 16.

For a further experiment, the system named is Enterococcus faecalis. The experiment can be described thus: Antimicrobial adjuvant activity against Enterococcus faecalis B3/101 assessed as potentiation of vancomycin-induced antibacterial activity by measuring fold reduction in vancomycin MIC at 64 ug/ml by broth microdilution method. It is filed as functional. The following applies: dose 64 µg/ml.
On to `Cc1ccc(/C=C2\COC/C(=C\c3ccc(C)cc3)C2=O)cc1`, for which the “fold change (FC)” value was found to be 2.
Regarding `COc1cccc(/C=C2\COC/C(=C\c3cccc(OC)c3OC)C2=O)c1OC`, the “fold change (FC)” value is recorded as 32.

The next experiment deals with Salmonella enterica subsp. enterica serovar Typhimurium. The experiment can be described thus: Inhibition of Multidrug resistance efflux pump in Salmonella enterica serovar typhimurium SL1344 (SE03) assessed as relative fluorescence index using ethidium bromide as substrate at 50 uM by fluorescence based analysis.
Conditions: not given
On to `Cc1ccc(/C=C2\COC/C(=C\c3ccc(C)cc3)C2=O)cc1`, for which the RFU is -0.21.
Same read-out and setting: for `COc1ccc(/C=C2\COC/C(=C\c3ccc(OC)c(OC)c3)C2=O)cc1OC` the value was -0.02.
Same read-out and setting: for `COc1cccc(/C=C2\COC/C(=C\c3cccc(OC)c3OC)C2=O)c1OC` the value was 0.12.

System in the next experiment: not listed separately
The experiment can be described thus: Inhibition of Multidrug resistance efflux pump in Staphylococcus aureus 272123 assessed as relative fluorescence index using ethidium bromide as substrate at 50 uM by fluorescence based analysis.
Conditions: not given
For `Cc1ccc(/C=C2\COC/C(=C\c3ccc(C)cc3)C2=O)cc1`, the RFU is -0.24.
Same read-out and setting: for `COc1ccc(/C=C2\COC/C(=C\c3ccc(OC)c(OC)c3)C2=O)cc1OC` the value was 2.47; for `COc1cccc(/C=C2\COC/C(=C\c3cccc(OC)c3OC)C2=O)c1OC`, 0.44.

The test system of a further experiment is Staphylococcus aureus. The experiment can be described thus: Inhibition of biofilm formation in Staphylococcus aureus ATCC 25923 at 100 uM incubated for 48 hrs by crystal violet staining based analysis. It is filed as functional.
Conditions: not given
For the compound `COc1ccc(/C=C2\COC/C(=C\c3ccc(OC)c(OC)c3)C2=O)cc1OC`, at 100 µM the inhibition was 0%.
The same measure, in the same setting: for `COc1cccc(/C=C2\COC/C(=C\c3cccc(OC)c3OC)C2=O)c1OC` the value was 0%.

The next experiment concerns Staphylococcus aureus. The experiment can be described thus: Inhibition of biofilm formation in Staphylococcus aureus 272123 at 100 uM incubated for 48 hrs by crystal violet staining based analysis. The format is functional.
Conditions: not given
Compound `COc1ccc(/C=C2\COC/C(=C\c3ccc(OC)c(OC)c3)C2=O)cc1OC` registered an inhibition at 100 µM of 0%.
Still for that read-out and setting: for `COc1cccc(/C=C2\COC/C(=C\c3cccc(OC)c3OC)C2=O)c1OC` the value was 46.9%.

System in a further experiment: not listed separately
The experiment can be described thus: Inhibition of quorum sensing system in Chromobacterium violaceum wild type 85 assessed as reduction in pigment production incubated for 24 to 48 hrs. To be noted: time 24-48 hrs.
For the compound `COc1ccc(/C=C2\COC/C(=C\c3ccc(OC)c(OC)c3)C2=O)cc1OC`, the Activity worked out at 0 mm.
With `COc1cccc(/C=C2\COC/C(=C\c3cccc(OC)c3OC)C2=O)c1OC`, the Activity was determined as 0 mm.

The next experiment relates to Serratia marcescens. The experiment can be described thus: Inhibition of quorum sensing system in Serratia marcescens AS-1 assessed as reduction in pigment production incubated for 24 to 48 hrs. To be noted: time 24-48 hrs.
Turning to `COc1ccc(/C=C2\COC/C(=C\c3ccc(OC)c(OC)c3)C2=O)cc1OC`, the Activity was determined as 0 mm.
The same measure, in the same setting: for `COc1cccc(/C=C2\COC/C(=C\c3cccc(OC)c3OC)C2=O)c1OC` the value was 0 mm.

System in another experiment: not listed separately
The experiment can be described thus: Inhibition of quorum sensing system in Chromobacterium violaceum CV026 assessed as reduction in pigment production co-cultured with Sphingomonas paucimobilis Ezf 10-17 for 24 to 48 hrs. The following applies: time 24-48 hrs.
Take `COc1ccc(/C=C2\COC/C(=C\c3ccc(OC)c(OC)c3)C2=O)cc1OC`: the Activity worked out at 0 mm.
Still for that read-out and setting: for `COc1cccc(/C=C2\COC/C(=C\c3cccc(OC)c3OC)C2=O)c1OC` the value was 31 mm.
